From US8765730B2 (Hoffmann-La Roche Inc, priority 2010, dated 2014)
pEC50: −log10 of the molar value. Read-outs that look alike come from different tables or passages of the source.

Biological target: T1, human GPBAR1 receptor (Homo sapiens, UniProt Q8TDU6)
T1 construct: expressed in transfected cells
T1 sequence (Q8TDU6 1-330): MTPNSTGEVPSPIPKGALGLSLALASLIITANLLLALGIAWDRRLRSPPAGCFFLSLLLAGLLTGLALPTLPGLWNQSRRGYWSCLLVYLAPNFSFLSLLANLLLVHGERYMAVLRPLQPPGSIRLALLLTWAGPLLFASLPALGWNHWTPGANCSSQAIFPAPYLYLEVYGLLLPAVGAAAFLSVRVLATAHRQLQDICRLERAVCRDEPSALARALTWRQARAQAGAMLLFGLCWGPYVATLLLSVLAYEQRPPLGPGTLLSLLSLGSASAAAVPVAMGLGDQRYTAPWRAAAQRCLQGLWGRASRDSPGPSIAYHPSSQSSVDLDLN
Experiment: functional cAMP assay in CHO-dhfr(minus) cells expressing human GPBAR1 receptors
Assay type: cell-based
Details: 30 min at 30° C.
In short: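 Agonist cAMP read-out: stable GPBAR1 CHO-dhfr− clone, 30 min compound exposure at 30° C following 30 min IBMX (1 mM) preincubation in Krebs Ringer bicarbonate. Time-resolved energy-transfer detection gives EC50; parental CHO cells serve as counter-screen.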

[1] = human EC50, functional cAMP assay

| Structure (SMILES) | pEC50 [1] | pEC50 (functional cAMP assay, read-out: human EC50) |
| --- | --- | --- |
| CCOCCn1cc(/C(CC(c2ccc(S(C)(=O)=O)cc2)c2ccc(Cl)cc2C)=N/O)ccc1=O (stereo not drawn) [Example 340, (E)-5-(3-(4-Chloro-2-methylphenyl)-1-(hydroxyimino)-3-(4-(methylsulfonyl)phenyl)-propyl)-1-(2-ethoxyethyl)pyridin-2(1H)-one] | 6.66 | – |
| COCCn1cc(/C(CC(c2ccc(S(C)(=O)=O)cc2)c2ccc(Cl)cc2C)=N/O)ccc1=O (stereo not drawn) [Example 341, (E)-5-(3-(4-Chloro-2-methylphenyl)-1-(hydroxyimino)-3-(4-(methylsulfonyl)phenyl)-propyl)-1-(2-methoxyethyl)pyridin-2(1H)-one] | 6.79 | – |
| Cc1cc(Cl)ccc1C(C/C(=N\O)c1ccc(=O)n(CCO)c1)c1ccc(S(C)(=O)=O)cc1 (stereo not drawn) [Example 342, (E)-5-(3-(4-Chloro-2-methylphenyl)-1-(hydroxyimino)-3-(4-(methylsulfonyl)phenyl)-propyl)-1-(2-hydroxyethyl)pyridin-2(1H)-one] | 6.00 | – |
| Cc1cc(Cl)ccc1C(C/C(=N\O)c1ccc(=O)n(CC(N)=O)c1)c1ccc(S(C)(=O)=O)cc1 (stereo not drawn) [Example 343, (E)-2-(5-(3-(4-Chloro-2-methylphenyl)-1-(hydroxyimino)-3-(4-(methylsulfonyl)-phenyl)propyl)-2-oxopyridin-1(2H)-yl)acetamide] | 5.43 | – |
| Cc1cc(Cl)ccc1C(C/C(=N\O)c1ccc(=O)n(CCC(N)=O)c1)c1ccc(S(C)(=O)=O)cc1 (stereo not drawn) [Example 344, (E)-3-(5-(3-(4-Chloro-2-methylphenyl)-1-(hydroxyimino)-3-(4-(methylsulfonyl)phenyl)-propyl)-2-oxopyridin-1(2H)-yl)propanamide] | 6.73 | – |
| Cc1cc(Cl)ccc1C(C/C(=N\O)c1ccc(=O)n(CCC(=O)O)c1)c1ccc(S(C)(=O)=O)cc1 (stereo not drawn) [Example 345, (E)-3-(5-(3-(4-Chloro-2-methylphenyl)-1-(hydroxyimino)-3-(4-(methylsulfonyl)phenyl)-propyl)-2-oxopyridin-1(2H)-yl)propanoic acid] | < 5.00 | – |
| Cc1cc(Cl)ccc1C(C/C(=N\O)c1ccc(=O)n(C)c1)c1ccc(Oc2cccc(C(=O)O)c2)cc1 (stereo not drawn) [Example 346, 3-{4-[1-(4-Chloro-2-methyl-phenyl)-3-[(E)-hydroxyimino]-3-(1-methyl-6-oxo-1,6-dihydro-pyridin-3-yl)-propyl]-phenoxy}-benzoic acid] | 7.38 | – |
| Cc1cc(Cl)ccc1C(C/C(=N\O)c1ccc(=O)n(C)c1)c1ccc(Oc2ccc(Cl)c(C(=O)O)c2)cc1 (stereo not drawn) [Example 347, 2-Chloro-5-{4-[1-(4-chloro-2-methyl-phenyl)-3-[(E)-hydroxyimino]-3-(1-methyl-6-oxo-1,6-dihydro-pyridin-3-yl)-propyl]-phenoxy}-benzoic acid] | 6.92 | – |
| Cc1cc(Cl)ccc1C(C/C(=N\O)c1ccc(=O)n(C)c1)c1ccc(Oc2ccc(F)c(C(=O)O)c2)cc1 (stereo not drawn) [Example 348, 5-{4-[1-(4-Chloro-2-methyl-phenyl)-3-[(E)-hydroxyimino]-3-(1-methyl-6-oxo-1,6-dihydro-pyridin-3-yl)-propyl]-phenoxy}-2-fluoro-benzoic acid] | 7.15 | – |
| Cc1cc(Cl)ccc1C(C/C(=N\O)c1ccc(=O)n(C)c1)c1ccc(OCCCC(=O)O)cc1 (stereo not drawn) [Example 349, 4-{4-[1-(4-Chloro-2-methyl-phenyl)-3-[(E)-hydroxyimino]-3-(1-methyl-6-oxo-1,6-dihydro-pyridin-3-yl)-propyl]-phenoxy}-butyric acid] | 6.57 | – |
| Cn1cc(/C(CC(c2ccc(S(C)(=O)=O)cc2)c2cc(Cl)ccc2Cl)=N/O)ccc1=O (stereo not drawn) [Example 350, (E)-5-(3-(2,5-Dichlorophenyl)-1-(hydroxyimino)-3-(4-(methylsulfonyl)phenyl)propyl)-1-methylpyridin-2(1H)-one] | 6.89 | – |
| Cn1cc(/C(CC(c2ccc(S(C)(=O)=O)cc2)c2cc(F)cc(F)c2)=N/O)ccc1=O (stereo not drawn) [Example 351, (E)-5-(3-(3,5-Difluorophenyl)-1-(hydroxyimino)-3-(4-(methylsulfonyl)phenyl)propyl)-1-methylpyridin-2(1H)-one] | 6.34 | – |
| Cn1cc(/C(CC(c2ccc(S(C)(=O)=O)cc2)c2cc(Cl)cc(Cl)c2)=N/O)ccc1=O (stereo not drawn) [Example 352, (E)-5-(3-(3,5-Dichlorophenyl)-1-(hydroxyimino)-3-(4-(methylsulfonyl)phenyl)propyl)-1-methylpyridin-2(1H)-one] | 7.09 | – |
| Cc1cc(Cl)ccc1C(C/C(=N\O)c1ccc(=O)n(C)c1)c1ccc(NS(C)(=O)=O)cc1 (stereo not drawn) [Example 353, N-{4-[1-(4-Chloro-2-methyl-phenyl)-3-[(E)-hydroxyimino]-3-(1-methyl-6-oxo-1,6-dihydro-pyridin-3-yl)-propyl]phenyl}-methanesulfonamide] | 6.56 | – |
| Cc1cc(Cl)ccc1C(C/C(=N\O)c1ccc(=O)n(C)c1)c1ccc(NS(=O)(=O)C2CC2)cc1 (stereo not drawn) [Example 354, Cyclopropanesulfonic acid {4-[1-(4-chloro-2-methyl-phenyl)-3-[(E)-hydroxyimino]-3-(1-methyl-6-oxo-1,6-dihydro-pyridin-3-yl)-propyl]-phenyl}-amide] | 6.31 | – |
| Cc1cc(Cl)ccc1C(C/C(=N\O)c1ccc(=O)n(C)c1)c1ccc(N2CCCC2=O)cc1 (stereo not drawn) [Example 355, 5-{3-(4-Chloro-2-methyl-phenyl)-1-[(E)-hydroxyimino]-3-[4-(2-oxo-pyrrolidin-1-yl)-phenyl]-propyl}-1-methyl-1H-pyridin-2-one] | 6.96 | – |
| Cc1cc(/C(C[C@H](c2ccc(N[C@H]3C[C@H](C(=O)O)C3)cc2)c2ccccc2C)=N/O)ccn1 [Example 356, 3-{4-[(R)-3-[(E)-Hydroxyimino]-3-(2-methyl-pyridin-4-yl)-1-o-tolyl-propyl]-phenylamino}-cyclobutanecarboxylic acid] | 7.05 | – |
| COC(CCl)CNc1ccc([C@@H](C/C(=N\O)c2ccnc(C)c2)c2ccccc2C)cc1 (stereo partly drawn) [Example 357, (R)-3-[4-(3-Chloro-2-methoxy-propylamino)-phenyl]-1-(2-methyl-pyridin-4-yl)-3-o-tolyl-propan-1-one oxime] | – | 7.04 |
| Cc1cc(/C(C[C@H](c2ccc(S(C)(=O)=O)cc2)c2ccccc2C)=N/O)ccn1 [Example 358, (R)-3-(4-Methanesulfonyl-phenyl)-1-(2-methyl-pyridin-4-yl)-3-o-tolyl-propan-1-one oxime] | 7.85 | – |
| Cc1cc(/C(C[C@H](c2ccc(S(C)(=O)=O)cc2)c2ccc(Cl)cc2C)=N/O)ccn1 [Example 359, (R)-3-(4-Chloro-2-methyl-phenyl)-3-(4-methanesulfonyl-phenyl)-1-(2-methyl-pyridin-4-yl)-propan-1-one oxime] | 7.59 | – |
| Cc1ccccc1C(C/C(=N\O)c1ccc(=O)n(C)c1)c1ccc(C(=O)O)cc1 (stereo not drawn) [Example 360, 4-[3-[(E)-Hydroxyimino]-3-(1-methyl-6-oxo-1,6-dihydro-pyridin-3-yl)-1-o-tolyl-propyl]-benzoic acid] | 5.32 | – |
| Cc1cc(Cl)ccc1C(C/C(=N\O)c1ccc(=O)n(C)c1)c1ccc(C(=O)O)cc1 (stereo not drawn) [Example 361, 4-[1-(4-Chloro-2-methyl-phenyl)-3-[(E)-hydroxyimino]-3-(1-methyl-6-oxo-1,6-dihydro-pyridin-3-yl)-propyl]-benzoic acid] | 5.64 | – |
| Cc1cc(Cl)ccc1[C@H](C/C(Cc1ccccn1)=N\O)c1ccc(Br)cc1 [Example 362, (E,R)-4-(4-bromo-phenyl)-4-(4-chloro-2-methyl-phenyl)-1-pyridin-2-yl-butan-2-one oxime] | 5.70 | – |
| Cc1cc(/C(C[C@H](c2ccc(O)cc2)c2ccccc2C)=N/O)ccn1 [Example 363, (R)-3-(4-Hydroxy-phenyl)-1-(2-methyl-pyridin-4-yl)-3-o-tolyl-propan-1-one oxime] | 7.55 | – |
| CCOc1ccc([C@@H](C/C(=N\O)c2ccnc(C)c2)c2ccccc2C)cc1 [Example 364, (R)-3-(4-Ethoxy-phenyl)-1-(2-methyl-pyridin-4-yl)-3-o-tolyl-propan-1-one oxime] | 8.40 | – |
| Cc1cc(/C(C[C@@H](c2ccc(O)cc2)c2ccc(Cl)cc2C)=N/O)ccn1 [Example 365, (S)-3-(4-Chloro-2-methyl-phenyl)-3-(4-hydroxy-phenyl)-1-(2-methyl-pyridin-4-yl)-propan-1-one oxime] | 6.63 | – |
| CCOc1ccc([C@H](C/C(=N\O)c2ccnc(C)c2)c2ccc(Cl)cc2C)cc1 [Example 366, (S)-3-(4-Chloro-2-methyl-phenyl)-3-(4-ethoxy-phenyl)-1-(2-methyl-pyridin-4-yl)-propan-1-one oxime] | 6.77 | – |
| Cc1cc(/C(C[C@H](c2ccc(N3CCC(C(N)=O)CC3)cc2)c2ccccc2C)=N/O)ccn1 [Example 367, (R,E)-1-(4-(3-(Hydroxyimino)-3-(2-methylpyridin-4-yl)-1-o-tolylpropyl)phenyl)piperidine-4-carboxamide] | 9.00 | – |
| Cc1cc(/C(C[C@H](c2ccccc2)c2ccccc2C)=N/O)ccn1 [Example 368, (R,E)-1-(2-Methylpyridin-4-yl)-3-phenyl-3-o-tolylpropan-1-one oxime] | 7.74 | – |
| Cc1cc(/C(C[C@H](c2ccc(N3CCC(C(=O)NCC(=O)O)CC3)cc2)c2ccccc2C)=N/O)ccn1 [Example 369, (R,E)-2-(1-(4-(3-(Hydroxyimino)-3-(2-methylpyridin-4-yl)-1-o-tolylpropyl)phenyl)-piperidine-4-carboxamido)acetic acid] | 8.70 | – |
